# Target: Sodium-dependent serotonin transporter (Homo sapiens, UniProt P31645)
# Sequence (P31645 whole entry): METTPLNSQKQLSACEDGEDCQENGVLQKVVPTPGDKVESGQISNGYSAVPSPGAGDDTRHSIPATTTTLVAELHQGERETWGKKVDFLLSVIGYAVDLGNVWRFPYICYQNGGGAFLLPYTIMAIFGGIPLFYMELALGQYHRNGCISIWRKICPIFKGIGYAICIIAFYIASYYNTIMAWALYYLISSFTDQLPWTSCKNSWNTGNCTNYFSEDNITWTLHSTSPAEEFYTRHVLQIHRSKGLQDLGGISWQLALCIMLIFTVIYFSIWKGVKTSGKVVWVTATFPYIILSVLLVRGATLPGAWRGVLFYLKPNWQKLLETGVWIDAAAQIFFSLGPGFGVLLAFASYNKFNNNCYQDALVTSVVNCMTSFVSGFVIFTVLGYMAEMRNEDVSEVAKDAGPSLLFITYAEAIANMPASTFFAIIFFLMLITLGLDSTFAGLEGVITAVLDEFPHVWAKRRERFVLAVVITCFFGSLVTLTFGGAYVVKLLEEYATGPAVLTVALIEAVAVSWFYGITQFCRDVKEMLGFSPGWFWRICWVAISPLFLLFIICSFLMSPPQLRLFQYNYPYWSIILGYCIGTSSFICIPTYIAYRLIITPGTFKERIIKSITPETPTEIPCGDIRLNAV
row,SMILES,Ki [µM]
1,CC(N)Cc1ccc2c(c1)OCO2 (configuration not stated),> 10
2,"CN[C@@H](C)Cc1ccc2c(c1)OCO2 [DL-(3,4-Methylenedioxy)methamphetamine]",> 10

# — BindingDB's records for doi:10.1124/jpet.104.069260 (University of Texas At Austin, 2004)
